Values of other authors as cited in US10092495B2, “Use of a composition comprising avocado perseose in the protection of epidermal stem cells” (LABORATOIRES EXPANSCIENCE, priority 2013, dated 2018).

Tested on: Ehrlich ascites tumor cells
Settings: perseitol associated with a potassium ion

SMILES: OCC(O)C(O)C(O)C(O)C(O)CO (stereo not shown) [perseitol, Perseitol]
- incorporation of 3H-leucine: inhibit
